Measured values taken from US20260285850A1, “SUBSTITUTED OXAZOLIDINONES AND IMIDAZOLINONES AS HERBICIDES” (FMC CORPORATION, priority 2023, published 2026).

Experiments:
Type in all cases: in vivo
[1] = system: barnyardgrass (Echinochloa crus-galli); experiment: Test A preemergence soil spray, visual injury rating 0-100; conditions: 10 days, 0 = no effect, 100 = complete control
Summary of the method: (§1)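 Plants were grown in a loam soil-sand blend and treated with test chemical in a non-phytotoxic solvent mixture containing surfactant, either sprayed on soil preemergence or applied postemergence to 2-10 cm plants. After 10 days in a greenhouse, injury was scored visually against untreated controls, 0 meaning no effect and 100 complete control.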

[2] = system: blackgrass (Alopecurus myosuroides); experiment: as above; conditions: 10 days, 0 = no effect, 100 = complete control
Summary of the method: as §1

[3] = system: green foxtail (Setaria viridis); experiment: as above; conditions: 10 days, 0 = no effect, 100 = complete control
Summary of the method: as §1

kochia (Bassia scoparia) [4] = experiment: as above; conditions: 10 days, 0 = no effect, 100 = complete control
Summary of the method: as §1

[5] = system: palmer (palmer amaranth, palmer pigweed, Amaranthus palmeri); experiment: as above; conditions: 10 days, 0 = no effect, 100 = complete control
Summary of the method: as §1

[6] = system: ragweed (common ragweed, Ambrosia artemisiifolia); experiment: as above; conditions: 1000 g ai/ha, 10 days, 0 = no effect, 100 = complete control
Summary of the method: as §1

[7] = system: ryegrass, Italian (italian ryegrass, Lolium multiflorum); experiment: as above; conditions: 10 days, 0 = no effect, 100 = complete control
Summary of the method: as §1

[8] = system: barnyardgrass (Echinochloa crus-galli); experiment: Test A postemergence application, visual injury rating 0-100; conditions: Postemergence, 10 days; for Barnyardgrass plant response rating (0 to 100 scale): 0 is no effect, 100 is complete control
Summary of the method: as §1

[9] = system: blackgrass (Alopecurus myosuroides); experiment: as above; conditions: Postemergence, 10 days; for Blackgrass plant response rating (0 to 100 scale): 0 is no effect, 100 is complete control
Summary of the method: as §1

[10] = system: galium (catchweed bedstraw, Galium aparine); experiment: as above; conditions: Postemergence, 10 days; for Galium plant response rating (0 to 100 scale): 0 is no effect, 100 is complete control
Summary of the method: as §1

[11] = system: green foxtail (Setaria viridis); experiment: as above; conditions: Postemergence, 10 days; for Foxtail, Green plant response rating (0 to 100 scale): 0 is no effect, 100 is complete control
Summary of the method: as §1

[12] = system: horseweed (Erigeron canadensis); experiment: as above; conditions: Postemergence, 10 days; for Horseweed plant response rating (0 to 100 scale): 0 is no effect, 100 is complete control
Summary of the method: as §1

kochia (Bassia scoparia) [13] = experiment: as above; conditions: Postemergence, 10 days; for Kochia plant response rating (0 to 100 scale): 0 is no effect, 100 is complete control
Summary of the method: as §1

[14] = system: barnyardgrass (Echinochloa crusgalli); experiment: Test B flooded paddy test, visual plant response rating 0-100; conditions: 250 g ai/ha, Flood, applied to paddy water, evaluated after 13 days
Summary of the method: (§2)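 Visual scores versus untreated controls were recorded 13 days after treatment of greenhouse-held plants. At the 2-leaf stage, pots were flooded 3 cm above the soil surface and compounds added straight to the water.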

[15] = system: ducksalad (Heteranthera limosa); experiment: as above; conditions: 250 g ai/ha, Flood, applied to paddy water, evaluated after 13 days
Summary of the method: as §2

rice (Oryza sativa) = experiment: as above; conditions: 250 g ai/ha, Flood, applied to paddy water, evaluated after 13 days
Summary of the method: as §2

[16] = system: sedge, umbrella (small-flower umbrella sedge, Cyperus difformis); experiment: as above; conditions: 250 g ai/ha, Flood, applied to paddy water, evaluated after 13 days
Summary of the method: as §2

corn (Zea mays) [17] = experiment: Test A preemergence soil spray, visual injury rating 0-100; conditions: 10 days, 0 = no effect, 100 = complete control
Summary of the method: as §1

[18] = system: oat, wild (wild oat, Avena fatua); experiment: as above; conditions: 10 days, 0 = no effect, 100 = complete control
Summary of the method: as §1

soybean (Glycine max) [19] = experiment: as above; conditions: 10 days, 0 = no effect, 100 = complete control
Summary of the method: as §1

[20] = system: wheat (Triticum aestivum); experiment: as above; conditions: 10 days, 0 = no effect, 100 = complete control
Summary of the method: as §1

corn (Zea mays) [21] = experiment: Test A postemergence application, visual injury rating 0-100; conditions: Postemergence, 10 days, 0 is no effect, 100 is complete control
Summary of the method: as §1

[22] = system: oat, wild (wild oat, Avena fatua); experiment: as above; conditions: Postemergence, 10 days, 0 is no effect, 100 is complete control
Summary of the method: as §1

[23] = system: palmer (palmer amaranth, palmer pigweed, Amaranthus palmeri); experiment: as above; conditions: Postemergence, 10 days, 0 is no effect, 100 is complete control
Summary of the method: as §1

[24] = system: ragweed (common ragweed, Ambrosia artemisiifolia); experiment: as above; conditions: Postemergence, 10 days, 0 is no effect, 100 is complete control
Summary of the method: as §1

[25] = system: ryegrass, Italian (italian ryegrass, Lolium multiflorum); experiment: as above; conditions: Postemergence, 10 days, 0 is no effect, 100 is complete control
Summary of the method: as §1

soybean (Glycine max) [26] = experiment: as above; conditions: Postemergence, 10 days, 0 is no effect, 100 is complete control
Summary of the method: as §1

[27] = system: wheat (Triticum aestivum); experiment: as above; conditions: Postemergence, 10 days, 0 is no effect, 100 is complete control
Summary of the method: as §1

COC(=O)C1=CCC(NC(=O)C2(C)CN(c3cc(F)cc(F)c3)C(=O)N2)C1 (mixture of isomers) [Compound 181]
Barnyardgrass plant response rating (0 to 100 scale) ([1]; 1000 g ai/ha): 80
Blackgrass plant response rating (0 to 100 scale) ([2]; 1000 g ai/ha): 80
Foxtail, Green plant response rating (0 to 100 scale) ([3]; 1000 g ai/ha): 90
Kochia plant response rating (0 to 100 scale) (kochia (Bassia scoparia) [4]; 1000 g ai/ha): 90
Amaranth, Palmer / Pigweed, Palmer plant response rating (0 to 100 scale) ([5]; 1000 g ai/ha): 90
Ragweed plant response rating (0 to 100 scale) [6]: 0
Ryegrass, Italian plant response rating (0 to 100 scale) ([7]; 1000 g ai/ha): 0
Barnyardgrass plant response rating ([8]; 1000 g ai/ha, 0 to 100 scale): 90
Blackgrass plant response rating ([9]; 1000 g ai/ha, 0 to 100 scale): 90
Galium plant response rating ([10]; 1000 g ai/ha, 0 to 100 scale): 90
Foxtail, Green plant response rating ([11]; 1000 g ai/ha, 0 to 100 scale): 90
Horseweed plant response rating ([12]; 1000 g ai/ha, 0 to 100 scale): 10
Kochia plant response rating (kochia (Bassia scoparia) [13]; 1000 g ai/ha, 0 to 100 scale): 80
Plant response rating, Barnyardgrass (0 to 100 scale, 0 is no effect and 100 is complete control) [14]: 10
Plant response rating, Ducksalad (0 to 100 scale, 0 is no effect and 100 is complete control) [15]: 30
Plant response rating, Rice (0 to 100 scale, 0 is no effect and 100 is complete control) (rice (Oryza sativa)): 15
Plant response rating, Sedge, Umbrella (0 to 100 scale, 0 is no effect and 100 is complete control) [16]: 0

CCCOC(=O)C1C=CC(NC(=O)C2(C)CN(c3cc(F)cc(F)c3)C(=O)O2)C1 (stereo not shown) [Compound 34]
Barnyardgrass plant response rating (0 to 100 scale) ([1]; 125 g ai/ha): 100
Barnyardgrass plant response rating (0 to 100 scale) ([1]; 500 g ai/ha): 100
Blackgrass plant response rating (0 to 100 scale) ([2]; 125 g ai/ha): 90
Blackgrass plant response rating (0 to 100 scale) ([2]; 500 g ai/ha): 100
Corn plant response rating (0 to 100 scale) (corn (Zea mays) [17]; 125 g ai/ha): 90
Corn plant response rating (0 to 100 scale) (corn (Zea mays) [17]; 500 g ai/ha): 100
Foxtail, Green plant response rating (0 to 100 scale) ([3]; 125 g ai/ha): 100
Foxtail, Green plant response rating (0 to 100 scale) ([3]; 500 g ai/ha): 100
Kochia plant response rating (0 to 100 scale) (kochia (Bassia scoparia) [4]; 125 g ai/ha): 90
Kochia plant response rating (0 to 100 scale) (kochia (Bassia scoparia) [4]; 500 g ai/ha): 90
Oat, Wild plant response rating (0 to 100 scale) ([18]; 125 g ai/ha): 90
Oat, Wild plant response rating (0 to 100 scale) ([18]; 500 g ai/ha): 90
Amaranth, Palmer plant response rating (0 to 100 scale) ([5]; 125 g ai/ha): 90
Amaranth, Palmer plant response rating (0 to 100 scale) ([5]; 500 g ai/ha): 100
Ryegrass, Italian plant response rating (0 to 100 scale) ([7]; 125 g ai/ha): 100
Ryegrass, Italian plant response rating (0 to 100 scale) ([7]; 500 g ai/ha): 100
Soybean plant response rating (0 to 100 scale) (soybean (Glycine max) [19]; 125 g ai/ha): 70
Soybean plant response rating (0 to 100 scale) (soybean (Glycine max) [19]; 500 g ai/ha): 80
Wheat plant response rating (0 to 100 scale) ([20]; 125 g ai/ha): 90
Wheat plant response rating (0 to 100 scale) ([20]; 500 g ai/ha): 100
Barnyardgrass plant response rating (0 to 100 scale) ([8]; 125 g ai/ha): 100
Barnyardgrass plant response rating (0 to 100 scale) ([8]; 500 g ai/ha): 100
Blackgrass plant response rating (0 to 100 scale) ([9]; 125 g ai/ha): 90
Blackgrass plant response rating (0 to 100 scale) ([9]; 500 g ai/ha): 100
Corn plant response rating (0 to 100 scale) (corn (Zea mays) [21]; 125 g ai/ha): 100
Corn plant response rating (0 to 100 scale) (corn (Zea mays) [21]; 500 g ai/ha): 100
Galium plant response rating (0 to 100 scale) ([10]; 125 g ai/ha): 80
Galium plant response rating (0 to 100 scale) ([10]; 500 g ai/ha): 80
Foxtail, Green plant response rating (0 to 100 scale) ([11]; 125 g ai/ha): 90
Foxtail, Green plant response rating (0 to 100 scale) ([11]; 500 g ai/ha): 90
Horseweed plant response rating (0 to 100 scale) ([12]; 125 g ai/ha): 90
Horseweed plant response rating (0 to 100 scale) ([12]; 500 g ai/ha): 90
Kochia plant response rating (0 to 100 scale) (kochia (Bassia scoparia) [13]; 125 g ai/ha): 70
Kochia plant response rating (0 to 100 scale) (kochia (Bassia scoparia) [13]; 500 g ai/ha): 70
Oat, Wild plant response rating (0 to 100 scale) ([22]; 125 g ai/ha): 100
Oat, Wild plant response rating (0 to 100 scale) ([22]; 500 g ai/ha): 100
Amaranth, Palmer / Pigweed, Palmer plant response rating (0 to 100 scale) ([23]; 125 g ai/ha): 80
Amaranth, Palmer / Pigweed, Palmer plant response rating (0 to 100 scale) ([23]; 500 g ai/ha): 100
Ragweed plant response rating (0 to 100 scale) ([24]; 125 g ai/ha): 70
Ragweed plant response rating (0 to 100 scale) ([24]; 500 g ai/ha): 80
Ryegrass, Italian plant response rating (0 to 100 scale) ([25]; 125 g ai/ha): 80
Ryegrass, Italian plant response rating (0 to 100 scale) ([25]; 500 g ai/ha): 90
Soybean plant response rating (0 to 100 scale) (soybean (Glycine max) [26]; 125 g ai/ha): 70
Soybean plant response rating (0 to 100 scale) (soybean (Glycine max) [26]; 500 g ai/ha): 80
Wheat plant response rating (0 to 100 scale) ([27]; 125 g ai/ha): 70
Wheat plant response rating (0 to 100 scale) ([27]; 500 g ai/ha): 80
Plant response rating, Barnyardgrass (0 to 100 scale, 0 is no effect and 100 is complete control) [14]: 90
Plant response rating, Ducksalad (0 to 100 scale, 0 is no effect and 100 is complete control) [15]: 75
Plant response rating, Rice (0 to 100 scale, 0 is no effect and 100 is complete control) (rice (Oryza sativa)): 10
Plant response rating, Sedge, Umbrella (0 to 100 scale, 0 is no effect and 100 is complete control) [16]: 75
